# The source made the active and inactive calls. The calls are words filed in the database; no cut-off is given here.
# Experiments:
# [1] = Selectivity index, ratio of IC50 for cytotoxicity against African green monkey Vero cells to IC50 for antitrypanosomal activity against Trypanosoma cruzi TINF/CH/1956/Tulahuen (DTU VI) amastigote form infected in Vero cells; type: toxicity, cell-based; details: read-out: Ratio IC50
# [2] = Toxicity in BALB/c mouse infected with Trypanosomal Trypanosoma cruzi MHOM/Pe/2011/Arequipa(DTU V) assessed as effect on urea level at 20 mg/kg, po administered for 5 days starting at 100 days post infection and measured after 2 days post treatment; type: organism-based; details: in vivo, 120 h, time 5 day
# [3] = test system: Trypanosoma cruzi; assay: Antitrypanosomal activity against Trypanosoma cruzi IRHOD/CO/2008/SN3 (DTU I) blood stream trypomastigote form assessed as parasite growth inhibition incubated for 24 hrs by resazurin dye based assay; type: functional, organism-based
# [4] = test system: Trypanosoma cruzi; assay: Antitrypanosomal activity against Trypanosoma cruzi MHOM/Pe/2011/Arequipa(DTU V) epimastigote form assessed as disruption of glycerol level at IC25 concentration incubated for 72 hrs by NMR spectrometric analysis; type: functional, organism-based
# [5] = test system: Trypanosoma cruzi; assay: Antitrypanosomal activity against Trypanosoma cruzi MHOM/Pe/2011/Arequipa(DTU V) epimastigote form assessed as disruption of L-alanine level at IC25 concentration incubated for 72 hrs by NMR spectrometric analysis; type: functional, organism-based
# [6] = Toxicity in BALB/c mouse infected with Trypanosomal Trypanosoma cruzi MHOM/Pe/2011/Arequipa(DTU V) assessed as effect on ALT/GPT level at 20 mg/kg, po administered for 5 days starting at 9 days post infection and measured after 2 days post treatment; type: organism-based; details: in vivo, 120 h, time 5 day
# [7] = Selectivity index, ratio of IC50 for cytotoxicity against African green monkey Vero cells to IC50 for antitrypanosomal activity against Trypanosoma cruzi IRHOD/CO/2008/SN3 (DTU I) blood stream trypomastigote form; type: toxicity, cell-based; details: read-out: Ratio IC50
# [8] = test system: Trypanosoma cruzi; assay: Antitrypanosomal activity against Trypanosoma cruzi MHOM/Pe/2011/Arequipa(DTU V) amastigote form infected in BALB/c mouse assessed as parasite free organ tissue ratio at 20 mg/kg, po administered for 5 days starting at 100 days post infection and measured up to 145 days post infection by PCR analysis relative to control; type: functional; details: time 5 day
# [9] = test system: Trypanosoma cruzi; assay: Antitrypanosomal activity against Trypanosoma cruzi MHOM/Pe/2011/Arequipa(DTU V) amastigote form infected in Vero cells assessed as parasite growth inhibition incubated for 72 hrs by Giemsa-staining based assay; type: functional, organism-based
# [10] = test system: Trypanosoma cruzi; assay: Antitrypanosomal activity against Trypanosoma cruzi MHOM/Pe/2011/Arequipa(DTU V) epimastigote form assessed as disruption of acetate level at IC25 concentration incubated for 72 hrs by NMR spectrometric analysis; type: functional, organism-based
# [11] = test system: Trypanosoma cruzi; assay: Antitrypanosomal activity against Trypanosoma cruzi MHOM/Pe/2011/Arequipa(DTU V) epimastigote form assessed as disruption of ethanol end product level at IC25 concentration incubated for 72 hrs by NMR spectrometric analysis; type: functional, organism-based
# [12] = test system: Trypanosoma cruzi; assay: Antitrypanosomal activity against Trypanosoma cruzi TINF/CH/1956/Tulahuen (DTU VI) epimastigote form assessed as parasite growth inhibition incubated for 48 hrs by resazurin dye based assay; type: functional, organism-based
# [13] = Toxicity in BALB/c mouse infected with Trypanosomal Trypanosoma cruzi MHOM/Pe/2011/Arequipa(DTU V) assessed as reduction in survival at 20 mg/kg, po administered for 5 days starting at 100 days post infection and measured up to 145 days post infection; type: organism-based; details: in vivo, 120 h, time 5 day
# [14] = test system: Trypanosoma cruzi; assay: Antitrypanosomal activity against Trypanosoma cruzi MHOM/Pe/2011/Arequipa(DTU V) amastigote form infected in Vero cells assessed as parasite growth inhibition at 50 uM incubated for 72 hrs by Giemsa-staining based assay relative to control; type: functional
# [15] = test system: Trypanosoma cruzi; assay: Antitrypanosomal activity against Trypanosoma cruzi MHOM/Pe/2011/Arequipa(DTU V) epimastigote form assessed as parasite growth inhibition incubated for 48 hrs by resazurin dye based assay; type: functional, organism-based
# [16] = Toxicity in BALB/c mouse infected with Trypanosomal Trypanosoma cruzi MHOM/Pe/2011/Arequipa(DTU V) assessed as effect on LDH level at 20 mg/kg, po administered for 5 days starting at 100 days post infection and measured after 2 days post treatment; type: organism-based; details: in vivo, 120 h, time 5 day
# [17] = molecular target: Superoxide dismutase [Cu-Zn] (Homo sapiens, UniProt P00441); assay: Inhibition of human erythrocytes CuZn-SOD by UV-VIS spectrophotometric method; parameters: species or system Erythrocyte
# [18] = test system: Trypanosoma cruzi; assay: Antitrypanosomal activity against Trypanosoma cruzi MHOM/Pe/2011/Arequipa(DTU V) amastigote form infected in BALB/c mouse assessed as reactivation parasitaemia at 20 mg/kg, po administered for 5 days starting at 100 days post infection and measured up to 145 days post infection relative to control; type: functional
# [19] = Selectivity index, ratio of IC50 for cytotoxicity against African green monkey Vero cells to IC50 for antitrypanosomal activity against Trypanosoma cruzi TINF/CH/1956/Tulahuen (DTU VI) blood stream trypomastigote form; type: toxicity, cell-based; details: read-out: Ratio IC50
# [20] = Toxicity in BALB/c mouse infected with Trypanosomal Trypanosoma cruzi MHOM/Pe/2011/Arequipa(DTU V) assessed as effect on uric acid level at 20 mg/kg, po administered for 5 days starting at 100 days post infection and measured after 2 days post treatment; type: organism-based; details: in vivo, 120 h, time 5 day
# [21] = Toxicity in BALB/c mouse infected with Trypanosomal Trypanosoma cruzi MHOM/Pe/2011/Arequipa(DTU V) assessed as effect on […] level at 20 mg/kg, po administered for 5 days starting at 100 days post infection and measured after 2 days post treatment; type: organism-based; details: in vivo, 120 h, time 5 day
# [22] = Selectivity index, ratio of IC50 for cytotoxicity against African green monkey Vero cells to IC50 for antitrypanosomal activity against Trypanosoma cruzi MHOM/Pe/2011/Arequipa(DTU V) blood stream trypomastigote form; type: toxicity, cell-based; details: read-out: Ratio IC50
# [23] = Toxicity in BALB/c mouse infected with Trypanosomal Trypanosoma cruzi MHOM/Pe/2011/Arequipa(DTU V) assessed as effect on total bilirubin level at 20 mg/kg, po administered for 5 days starting at 100 days post infection and measured after 2 days post treatment; type: organism-based; details: in vivo, 120 h, time 5 day
# [24] = Selectivity index, ratio of IC50 for cytotoxicity against African green monkey Vero cells to IC50 for antitrypanosomal activity against Trypanosoma cruzi TINF/CH/1956/Tulahuen (DTU VI) epimastigote form; type: toxicity, cell-based; details: read-out: Ratio IC50
# [25] = Selectivity index, ratio of IC50 for cytotoxicity against African green monkey Vero cells to IC50 for antitrypanosomal activity against Trypanosoma cruzi IRHOD/CO/2008/SN3 (DTU I) epimastigote form; type: toxicity, cell-based; details: read-out: Ratio IC50
# [26] = Toxicity in BALB/c mouse infected with Trypanosomal Trypanosoma cruzi MHOM/Pe/2011/Arequipa(DTU V) assessed as effect on ALP level at 20 mg/kg, po administered for 5 days starting at 100 days post infection and measured after 2 days post treatment; type: organism-based; details: in vivo, 120 h, time 5 day
# [27] = Toxicity in BALB/c mouse infected with Trypanosomal Trypanosoma cruzi MHOM/Pe/2011/Arequipa(DTU V) assessed as effect on ALP level at 20 mg/kg, po administered for 5 days starting at 9 days post infection and measured after 2 days post treatment; type: organism-based; details: in vivo, 120 h, time 5 day
# [28] = Toxicity in BALB/c mouse infected with Trypanosomal Trypanosoma cruzi MHOM/Pe/2011/Arequipa(DTU V) assessed as effect on urea level at 20 mg/kg, po administered for 5 days starting at 9 days post infection and measured after 2 days post treatment; type: organism-based; details: in vivo, 120 h, time 5 day
# [29] = test system: Trypanosoma cruzi; assay: Antitrypanosomal activity against Trypanosoma cruzi IRHOD/CO/2008/SN3 (DTU I) epimastigote form assessed as parasite growth inhibition incubated for 48 hrs by resazurin dye based assay; type: functional, organism-based
# Chain of Superoxide dismutase [Cu-Zn] (P00441 whole entry): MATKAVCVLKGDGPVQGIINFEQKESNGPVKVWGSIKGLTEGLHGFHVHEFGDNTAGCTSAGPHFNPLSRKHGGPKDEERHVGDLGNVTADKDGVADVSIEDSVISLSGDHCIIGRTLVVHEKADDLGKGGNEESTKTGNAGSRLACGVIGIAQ
Structure (SMILES),selectivity ratio [1],Activity [2],IC50 [3],Activity [4],Activity [5],Activity [6],selectivity ratio [7],Activity [8],IC50 [9],Activity [10],Activity [11],IC50 [12],Activity [13],inhibition at 50 µM [14],IC50 [15],Activity [16],IC50 [17],selectivity ratio [19],Activity [20],Activity [21],other results
CC(C)c1cc(C=O)c([C@@]2(C)CCCC(C)(C)C2=O)cc1O,> 40,Non-Toxic,8.7 µM,Active,inactive,Non-Toxic,> 40,42.9%,9.2 µM,inactive,Active,13.5 µM,Non-Toxic,100%,18.5 µM,Non-Toxic,> 100 µM,> 40,Non-Toxic,Non-Toxic,Activity ([18]; time 5.0 day): Active; selectivity ratio [22]: > 40; Activity [23]: Non-Toxic; selectivity ratio [24]: > 15; selectivity ratio [25]: > 15; Activity [26]: Non-Toxic; Activity [27]: Non-Toxic; Activity [28]: Non-Toxic; IC50 [29]: 12.5 µM
COC(=O)[C@]1(C)CCC[C@]2(C)C3=C(C=C[C@@H]12)C(=O)C(C(C)C)=CC3=O,> 40,Non-Toxic,1.8 µM,Active,inactive,Non-Toxic,> 40,57.1%,4.8 µM,inactive,Active,2.1 µM,Non-Toxic,100%,1.4 µM,Non-Toxic,> 100 µM,> 40,Non-Toxic,Non-Toxic,Activity ([18]; time 5 day): 52%; selectivity ratio [22]: > 40; Activity [23]: Non-Toxic; selectivity ratio [24]: > 15; selectivity ratio [25]: > 15; Activity [26]: Non-Toxic; Activity [27]: Non-Toxic; Activity [28]: Non-Toxic; IC50 [29]: 1.6 µM
